Experiment [1] addresses T1, Full-length PRMT5 enzyme (NCBI Reference sequence NP_006100.2) co-expressed with His6-MEP50 (Homo sapiens (Human), UniProt O14744). The experiment in a line: PRMT5 Biochemical Assay. The conditions noted are these: 200 nM peptide substrate, 1 μM S-Adenosyl methionine, 4 hours at 37° C., Transcreener EPIGEN fluorescence polarisation. How it is done:
Compounds of the invention may be tested for in vitro activity in the following assay: A histone H4 derived peptide is used as substrate (amino acid sequence: […]N H2). Full-length PRMT5 enzyme (NCBI Reference sequence NP_006100.2) was co-expressed with His6-MEP50 in insect cells and purified via Nickel immobilized metal affinity and gel filtration chromatography (“the enzyme”).
The 6 μL assay reactions are run in Greiner brand black 384-well low volume plates. All reactions contained assay buffer (phosphate buffered saline, 0.01% (v/v) Tween-20, 0.01% (w/v) albumin from chicken egg white, 1 mM dithiothreitol, 200 nM peptide substrate, 1 μM S-Adenosyl methionine, and 15 ng/reaction enzyme, with the enzyme being omitted from negative control reactions. Compounds were added in a volume of 100 nL from dilution series prepared in DMSO, positive and negative control reactions receiving the same volume DMSO without compound. The plates were sealed with adhesive seals and incubated for 4 hours at 37° C. Reaction progress was measured using the Transcreener™ EPIGEN methyltransferase assay (BellBrook Labs, Madison, Wis.) as recommended by the manufacturer. To each reaction 2 μL detection mix were added, containing coupling enzymes, fluorescence polarisation tracer, and AMP antibody. Plates were incubated for 90 min before being read on a PerkinElmer EnVision™ plate reader in fluorescence polarisation mode. IC50 values were obtained from the raw readings by calculating percent inhibition (%1) for each reaction relative to controls on the same plate (% I=(I−CN)/(CP−CN) where CN/CP are the averages of the negative/positive reactions, respectively), then fitting the % I data vs. compound concentration [I] to % I=(A+((B−A)/(1+((C/[I])^D)))) where A is the lower asymptote, B is the upper asymptote, C is the IC50 value, and D is the slope.
In general terms: Polarisation of emitted light reports the rotation of a fluorescent probe.

Experiment [2] concerns symmetrical dimethylation of arginine (Di-Methyl Histone H4R3) in cell line TE11. As to the kind of experiment: PRMT5 Biomarker Assay (symmetrical dimethylation of arginine, Di-Methyl Histone H4R3 ELISA). Format: cell-based. The conditions noted are these: Homo sapiens, TE-11; TE11 cells, 72 h incubation, EpiQuik ELISA, corrected for total protein. How it is done:
(§1) Compounds of the invention may be tested for potency to inhibit symmetrical dimethylation of arginine in the following assay:
The cell line TE11 was seeded at a density of 12,000 cells per well in 96 well tissue culture plates in DME medium and 10% foetal bovine serum, and allowed to adhere overnight under standard culture conditions (37° C., 5% CO2). Compound dilutions prepared in DMSO were added to the medium, with negative control wells reserved for treatment with DMSO only and positive controls receiving a potent PRMT5 inhibitor. The concentration of the inhibitor had been previously determined to give maximum inhibition of the methylation. After incubation for 72 h, cells were washed twice in ice-cold PBS, lysed in lysis buffer (20 mM Tris pH 7.4, 135 mM NaCl, 1.5 mM MgCl2, 1 mM EGTA, 10% glycerol and 1% Triton-X100), centrifuged at 15,000×g and the supernatants collected for subsequent analysis. The methylation level was determined using the EpiQuik™ Global Di-Methyl Histone H4R^3 Quantification ELISA Kit (Epigentek, Farmingdale, N.Y.) as per the manufacturer's recommendations; in parallel the total protein amount in the lysate was quantified using a Lowry protein assay. […]

The target of experiment [3] is T1, Full-length PRMT5 enzyme (NCBI Reference sequence NP_006100.2) co-expressed with His6-MEP50. The experiment in a line: Revised PRMT5 Biochemical Assay. The conditions noted are these: 1 μM peptide substrate, 1 μM S-Adenosyl methionine, 4 hours at 37 degree Celsius, Transcreener EPIGEN fluorescence polarisation. In a few lines: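 Full-length PRMT5 co-expressed with His6-MEP50 in insect cells (15 ng/reaction) was run with 1 μM H4-derived peptide and 1 μM SAM in PBS, 0.01% Tween-20, 0.01% albumin and 1 mM DTT for 4 h at 37 °C. Product was read by Transcreener EPIGEN fluorescence polarisation, and IC50 came from a 4-parameter fit.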

In experiment [4] the test system is symmetrical dimethylation of arginine (Di-Methyl Histone H4 Arginine 3) in cell line TE11. As to the kind of experiment: Revised PRMT5 Biomarker Assay (Di-Methyl Histone H4 Arginine 3 immunofluorescence). Format: cell-based. The conditions noted are these: TE11 cells, 72 hours. How it is done:
as §1
The cell line TE11 was seeded at a density of 6,000 cells per well in 96 well optical quality tissue culture plates in DME medium and 10% foetal bovine serum, and allowed to adhere for 5 hours under standard culture conditions (37 degree Celsius, 5% CO2). […] After incubation for 72 hours, the cells were fixed with 3.7% formaldehyde in PBS for 30 minutes at room temperature, washed with phosphate buffer saline and blocked with Odyssey blocking buffer (LI-COR, Lincoln, Nebr.). Rabbit anti-Di-Methyl Histone H4 Arginine 3 specific antibody (Epigentek) in Odyssey blocking buffer was added and incubated for 14 hours at 4 degree Celsius. […] Alternatively, the plates were imaged on a PerkinElmer Phenix high content imaging platform. […] The resulting mean intensity per cell was directly converted to percent inhibition as outlined above (IC50, imager based).

Where [5] appears, read: Homo sapiens, TE-11, PerkinElmer Envision fluorescence intensity, corrected for Hoechst 33342, read-out: IC50 - plate-reader based.
The mark [6] stands for this setting: Homo sapiens, TE-11, PerkinElmer Phenix high content imaging, mean intensity per cell, read-out: IC50 - image based.

Where a name gives a salt, the structure may show the parent alone. Read-outs that look alike come from different tables or passages of the source.

T1 sequence (O14744 whole entry): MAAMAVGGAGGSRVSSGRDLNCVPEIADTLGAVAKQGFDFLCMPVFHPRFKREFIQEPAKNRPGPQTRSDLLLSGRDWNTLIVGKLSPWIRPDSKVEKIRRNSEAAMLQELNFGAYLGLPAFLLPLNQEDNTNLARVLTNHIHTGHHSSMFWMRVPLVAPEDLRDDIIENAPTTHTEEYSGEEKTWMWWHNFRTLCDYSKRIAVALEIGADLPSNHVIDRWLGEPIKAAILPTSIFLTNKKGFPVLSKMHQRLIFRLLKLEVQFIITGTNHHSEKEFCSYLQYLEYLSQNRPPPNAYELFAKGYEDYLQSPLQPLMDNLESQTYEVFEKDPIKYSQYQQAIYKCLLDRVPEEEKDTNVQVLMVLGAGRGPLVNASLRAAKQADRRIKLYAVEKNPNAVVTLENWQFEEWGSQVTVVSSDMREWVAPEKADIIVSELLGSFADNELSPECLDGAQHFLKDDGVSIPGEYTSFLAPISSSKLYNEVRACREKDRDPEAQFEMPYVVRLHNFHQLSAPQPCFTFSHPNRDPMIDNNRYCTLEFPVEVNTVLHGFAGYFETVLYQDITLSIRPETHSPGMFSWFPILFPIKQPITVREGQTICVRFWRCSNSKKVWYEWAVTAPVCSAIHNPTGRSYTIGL
T1 sequence (Q9BQA1 whole entry partner): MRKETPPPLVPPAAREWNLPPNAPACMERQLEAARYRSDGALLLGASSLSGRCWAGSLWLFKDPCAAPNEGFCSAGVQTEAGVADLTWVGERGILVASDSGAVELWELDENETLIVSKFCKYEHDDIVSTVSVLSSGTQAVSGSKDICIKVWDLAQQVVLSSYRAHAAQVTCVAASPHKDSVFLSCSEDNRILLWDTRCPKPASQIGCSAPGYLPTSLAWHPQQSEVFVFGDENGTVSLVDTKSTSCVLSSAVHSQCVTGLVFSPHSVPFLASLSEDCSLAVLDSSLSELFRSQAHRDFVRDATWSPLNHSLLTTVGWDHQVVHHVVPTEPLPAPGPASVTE

As usually defined, the IC50 is the concentration at which inhibition is half-maximal. Regarding `O=C(NCC(O)CC1Cc2ccccc2CN1)c1ccc(C(=O)N2CCOCC2)cc1` (stereo not drawn) [Example 1, N-(2-Hydroxy-3-(1,2,3,4-tetrahydroisoquinolin-3-yl)propyl)-4-(morpholine-4-carbonyl)benzamide], the IC50 in experiment [1] was found to be 4690 nM; in experiment [2], 956 nM.
Turning to `O=C(NCC(O)C1Cc2ccccc2CN1)c1ccc(C(=O)N2CCOCC2)cc1` (stereo not drawn) [Example 2, N-(2-hydroxy-2-(1,2,3,4-tetrahydroisoquinolin-3-yl)ethyl)-4-(morpholine-4-carbonyl)benzamide], the IC50 in experiment [1] came to 763 nM; in experiment [2] it was 7.2 nM.
In the case of `O=C(NC[C@H](O)[C@H]1Cc2ccccc2CN1)c1ccc(C(=O)N2CCOCC2)cc1` [Example 53, N—((S)-2-hydroxy-2-((R)-1,2,3,4-tetrahydroisoquinolin-3-yl)ethyl)-4-(morpholine-4-carbonyl)benzamide hydrochloride], the figures for the IC50 in experiment [1] and in experiment [3] were 22000 nM and 21200 nM, respectively.
Take `CC(=O)N1CCC(Oc2cc(C(=O)NC[C@@H](O)[C@@H]3Cc4ccccc4CN3)ccn2)CC1` [Example 102, 2-((1-Acetylpiperidin-4-yl)oxy)-N—((R)-2-hydroxy-2-((S)-1,2,3,4-tetrahydroisoquinolin-3-yl)ethyl)isonicotinamide]: the values for the IC50 in experiment [3] and in experiment [4] (setting [5]) were 68 nM and 5 nM, respectively.
On the same counts, the results for `O=C(NC[C@@H](O)[C@@H]1Cc2ccccc2CN1)c1ccc(C(=O)N2C3CCCC2COC3)cc1` [Example 103, 4-(3-Oxa-9-azabicyclo[3.3.1]nonane-9-carbonyl)-N—((R)-2-hydroxy-2-((S)-1,2,3,4-tetrahydroisoquinolin-3-yl)ethyl)benzamide] are 65 nM and 4 nM.
In the case of `O=C(NC[C@@H](O)[C@@H]1Cc2ccccc2CN1)c1ccnc(OC2CCOC2)c1` (stereo partly drawn) [Example 104, N—((R)-2-Hydroxy-2-((S)-1,2,3,4-tetrahydroisoquinolin-3-yl)ethyl)-2-((tetrahydrofuran-3-yl)oxy)isonicotinamide bis(2,2,2-trifluoroacetate)], the IC50 in experiment [3] was determined as 147 nM; in experiment [4] (setting [6]) it was 12 nM.
For `COC(=O)N1[C@@H]2CC[C@H]1C[C@@H](Oc1cc(C(=O)NC[C@@H](O)[C@@H]3Cc4ccccc4CN3)ccn1)C2` [Example 105, Methyl (1R,3r,5S)-3-((4-(((R)-2-hydroxy-2-((S)-1,2,3,4-tetrahydroisoquinolin-3-yl)ethyl)carbamoyl)pyridin-2-yl)oxy)-8-azabicyclo[3.2.1]octane-8-carboxylate], the IC50 in experiment [3] worked out at 38 nM; in experiment [4] (PerkinElmer Phenix high content imaging, mean intensity per cell, read-out: IC50 - image based), 1 nM.
As to `O=C(NC[C@@H](O)[C@@H]1Cc2ccccc2CN1)c1ccc(C(=O)N2C3CCC2COC3)cc1C(F)F` [Example 106, 4-(3-Oxa-8-azabicyclo[3.2.1]octane-8-carbonyl)-2-(difluoromethyl)-N—((R)-2-hydroxy-2-((S)-1,2,3,4-tetrahydroisoquinolin-3-yl)ethyl)benzamide], the IC50 was 212 nM in experiment [3] and 5 nM in experiment [4] (setting [6]).
As for `CCOc1cc(C(=O)N2C3CCC2COC3)ccc1C(=O)NC[C@@H](O)[C@@H]1Cc2ccc(C)cc2CN1` [Example 108, 4-(3-Oxa-8-azabicyclo[3.2.1]octane-8-carbonyl)-2-ethoxy-N—((R)-2-hydroxy-2-((S)-7-methyl-1,2,3,4-tetrahydroisoquinolin-3-yl)ethyl)benzamide], the IC50 amounted to 17 nM in experiment [3] and 1 nM in experiment [4] (setting [5]).

These data come from patent publication US10494376B2, “Tetrahydroisoquinoline derived PRMT5-inhibitors” (CTXT PTY LTD, priority 2014, dated 2019).
